In patent US20130274174A1, “THERAPEUTIC COMBINATION OF DAPTOMYCIN AND PROTEIN SYNTHESIS INHIBITOR ANTIBIOTIC, AND METHODS OF USE” (priority 2011, published 2013):
≈ marks a conversion by molar mass, not a printed value. Where two headings read alike, the source gives them in different places.

What was measured:
[1] = system: S. aureus and enterococci; conditions: Entenza et al. 2010; cited from earlier work
[2] = system: S. aureus MW2 (NRS123); experiment: microbe, parasite or virus in culture; type: cell-based, Staphylococcus aureus; conditions: Staphylococcus aureus
Experimental: S. aureus strains MW2 (NARSA collection clinical MRSA isolate, NRS123) and ATCC 33591 (MRSA strain from the American Type Culture Collection) were cultured on Mueller-Hinton II cation adjusted (MHA) medium in 90×90 mm square petri dishes. MHA containing ¼ of the MIC value of TR-700, TR-705, LZD, TIA, CLI, TET, or VAN, TMP/SMX throughout the plate and a continuous linear gradient of DAP across the plate was used to passage MW2. ATCC 33591 was passaged with ¼ of the MIC of a subset of these drugs (TR-700, TMP/SMX, and VAN). A DAP-only control passage group was included for both strains. DAP gradients were created by pouring two layers of media as previously described (Bryson, V., et al. 1952. Microbial selection. Science 116:45-51; Locke, J. B., et al., 2009. Antimicrob. Agents Chemother. 53:5265-5274). Following each passage the leading edge of growth (i.e., most resistant cells) was resuspended in phosphate buffered saline (PBS) to an absorbance of 0.30 OD600 and a 100 μl aliquot containing ˜3.0×10^7 CFU (colony-forming units) was spread on to the proceeding passage plate. The starting maximal DAP concentration was 2 μg/ml and was increased in two-fold increments when the leading edge of growth surpassed the half way point on the plate. A glycerol stock was made from the total cell population for each culture condition for each passage. Thirty serial passages were completed for each treatment group.

Molecule: Gentamicin
- increase of MIC in parallel to the increase in the daptomycin MIC [1]: two-fold
- prevention of the emergence of daptomycin resistance [1]: unable to prevent the emergence of daptomycin resistance

Molecule: CN(C)[C@@H]1C(O)=C(C(N)=O)C(=O)[C@@]2(O)C(O)=C3C(=O)c4c(O)cccc4[C@@](C)(O)[C@H]3C[C@@H]12 [TET, tetracycline]
- MIC ([2]; NRS123, passage 0, NRS123 WT): 0.5 µg/mL (≈ 1.13 µM)
- MIC ([2]; NRS123, passage 5, selection group DAP): 0.25 µg/mL (≈ 0.563 µM)
- MIC ([2]; NRS123, passage 5, selection group DAP + CLI): 0.5 µg/mL
- MIC ([2]; NRS123, passage 5, selection group DAP + LZD): 0.5 µg/mL
- MIC ([2]; NRS123, passage 5, selection group DAP + TET): 0.25 µg/mL
- MIC ([2]; NRS123, passage 5, selection group DAP + TIA): 0.5 µg/mL
- MIC ([2]; NRS123, passage 5, selection group DAP + TMP/SMX): 0.125 µg/mL
- MIC ([2]; NRS123, passage 5, selection group DAP + TR-700): 0.5 µg/mL
- MIC ([2]; NRS123, passage 5, selection group DAP + TR-705): 0.5 µg/mL
- MIC ([2]; NRS123, passage 5, selection group DAP + VAN): 0.25 µg/mL
- MIC ([2]; NRS123, passage 10, selection group DAP): 0.125 µg/mL (≈ 0.281 µM)
- MIC ([2]; NRS123, passage 10, selection group DAP + CLI): 0.5 µg/mL
- MIC ([2]; NRS123, passage 10, selection group DAP + LZD): 0.25 µg/mL
- MIC ([2]; NRS123, passage 10, selection group DAP + TET): 0.5 µg/mL
- MIC ([2]; NRS123, passage 10, selection group DAP + TIA): 0.25 µg/mL
- MIC ([2]; NRS123, passage 10, selection group DAP + TMP/SMX): 0.5 µg/mL
- MIC ([2]; NRS123, passage 10, selection group DAP + TR-700): 0.5 µg/mL
- MIC ([2]; NRS123, passage 10, selection group DAP + TR-705): 0.125 µg/mL
- MIC ([2]; NRS123, passage 10, selection group DAP + VAN): 0.25 µg/mL
- MIC ([2]; NRS123, passage 15, selection group DAP): 0.25 µg/mL (≈ 0.563 µM)
- MIC ([2]; NRS123, passage 15, selection group DAP + CLI): 0.125 µg/mL
- MIC ([2]; NRS123, passage 15, selection group DAP + LZD): 0.25 µg/mL
- MIC ([2]; NRS123, passage 15, selection group DAP + TET): 0.5 µg/mL
- MIC ([2]; NRS123, passage 15, selection group DAP + TIA): 0.25 µg/mL
- MIC ([2]; NRS123, passage 15, selection group DAP + TMP/SMX): 0.25 µg/mL
- MIC ([2]; NRS123, passage 15, selection group DAP + TR-700): 0.25 µg/mL
- MIC ([2]; NRS123, passage 15, selection group DAP + TR-705): 0.25 µg/mL
- MIC ([2]; NRS123, passage 15, selection group DAP + VAN): 0.25 µg/mL
- MIC ([2]; NRS123, passage 20, selection group DAP): 0.125 µg/mL (≈ 0.281 µM)
- MIC ([2]; NRS123, passage 20, selection group DAP + CLI): 0.125 µg/mL
- MIC ([2]; NRS123, passage 20, selection group DAP + LZD): 0.25 µg/mL
- MIC ([2]; NRS123, passage 20, selection group DAP + TET): 0.25 µg/mL
- MIC ([2]; NRS123, passage 20, selection group DAP + TIA): 0.25 µg/mL
- MIC ([2]; NRS123, passage 20, selection group DAP + TMP/SMX): 0.25 µg/mL
- MIC ([2]; NRS123, passage 20, selection group DAP + TR-700): 0.25 µg/mL
- MIC ([2]; NRS123, passage 20, selection group DAP + TR-705): 0.125 µg/mL
- MIC ([2]; NRS123, passage 20, selection group DAP + VAN): 0.25 µg/mL
- MIC ([2]; NRS123, passage 25, selection group DAP): 0.125 µg/mL (≈ 0.281 µM)
- MIC ([2]; NRS123, passage 25, selection group DAP + CLI): 0.125 µg/mL
- MIC ([2]; NRS123, passage 25, selection group DAP + LZD): 0.25 µg/mL
- MIC ([2]; NRS123, passage 25, selection group DAP + TET): 0.25 µg/mL
- MIC ([2]; NRS123, passage 25, selection group DAP + TIA): 0.25 µg/mL
- MIC ([2]; NRS123, passage 25, selection group DAP + TMP/SMX): 0.25 µg/mL
- MIC ([2]; NRS123, passage 25, selection group DAP + TR-700): 0.25 µg/mL
- MIC ([2]; NRS123, passage 25, selection group DAP + TR-705): 0.125 µg/mL
- MIC ([2]; NRS123, passage 25, selection group DAP + VAN): 0.25 µg/mL
- MIC ([2]; NRS123, passage 30, selection group DAP): 0.25 µg/mL (≈ 0.563 µM)
- MIC ([2]; NRS123, passage 30, selection group DAP + CLI): 0.25 µg/mL
- MIC ([2]; NRS123, passage 30, selection group DAP + LZD): 0.25 µg/mL
- MIC ([2]; NRS123, passage 30, selection group DAP + TET): 0.5 µg/mL
- MIC ([2]; NRS123, passage 30, selection group DAP + TIA): 0.5 µg/mL
- MIC ([2]; NRS123, passage 30, selection group DAP + TMP/SMX): 0.5 µg/mL
- MIC ([2]; NRS123, passage 30, selection group DAP + TR-700): 0.5 µg/mL
- MIC ([2]; NRS123, passage 30, selection group DAP + TR-705): 0.25 µg/mL
- MIC ([2]; NRS123, passage 30, selection group DAP + VAN): 0.5 µg/mL
- MIC ([2]; NRS123, read-out: DAP MIC by the end of the experiment (selection of DAP^ns strains), MW2, passaged with DAP alone or with co-selecting agent at ¼ MIC, CLSI breakpoint): > 1 µg/mL
